{"source": "patent US12427157B2", "about": "“Methods for treatment of diseases involving acidic or hypoxic diseased tissues” (Cybrexa 1, Inc., priority 2018, dated 2025)", "note": "Residues, ends and D or L forms follow the SMILES beside them. *: point of attachment. X11 = CN(Cc1ccc(-c2[nH]c3cc(F)cc4c3c2CCNC4=O)cc1)C(=O)OCc1ccc(NC(=O)OCCS*)cc1; X13 = Cc1cc(COC(=O)N(C)Cc2ccc(-c3[nH]c4cc(F)cc5c4c3CCNC5=O)cc2)cc(C)c1S*; X5 = CNCc1ccc(-c2c3c4c(cc(F)cc4n2[C@H](CC(C)C)NC(=O)OCCS*)C(=O)NCC3)cc1; X10 = Cc1cc(COC(=O)N(C)Cc2ccc(-c3[nH]c4cc(F)cc5c4c3CCNC5=O)cc2)ccc1S*; X15 = Cc1cc(S*)ccc1COC(=O)N(C)Cc1ccc(-c2[nH]c3cc(F)cc4c3c2CCNC4=O)cc1; X3 = CN(Cc1ccc(-c2[nH]c3cc(F)cc4c3c2CCNC4=O)cc1)C(=O)OCc1ccc(S*)cc1; X18 = CNCc1ccc(-c2c3c4c(cc(F)cc4n2CNC(=O)OCCS*)C(=O)NCC3)cc1"}
{"molecular_target": "PARP (Homo sapiens, UniProt P09874)", "sequence (P09874 whole entry)": "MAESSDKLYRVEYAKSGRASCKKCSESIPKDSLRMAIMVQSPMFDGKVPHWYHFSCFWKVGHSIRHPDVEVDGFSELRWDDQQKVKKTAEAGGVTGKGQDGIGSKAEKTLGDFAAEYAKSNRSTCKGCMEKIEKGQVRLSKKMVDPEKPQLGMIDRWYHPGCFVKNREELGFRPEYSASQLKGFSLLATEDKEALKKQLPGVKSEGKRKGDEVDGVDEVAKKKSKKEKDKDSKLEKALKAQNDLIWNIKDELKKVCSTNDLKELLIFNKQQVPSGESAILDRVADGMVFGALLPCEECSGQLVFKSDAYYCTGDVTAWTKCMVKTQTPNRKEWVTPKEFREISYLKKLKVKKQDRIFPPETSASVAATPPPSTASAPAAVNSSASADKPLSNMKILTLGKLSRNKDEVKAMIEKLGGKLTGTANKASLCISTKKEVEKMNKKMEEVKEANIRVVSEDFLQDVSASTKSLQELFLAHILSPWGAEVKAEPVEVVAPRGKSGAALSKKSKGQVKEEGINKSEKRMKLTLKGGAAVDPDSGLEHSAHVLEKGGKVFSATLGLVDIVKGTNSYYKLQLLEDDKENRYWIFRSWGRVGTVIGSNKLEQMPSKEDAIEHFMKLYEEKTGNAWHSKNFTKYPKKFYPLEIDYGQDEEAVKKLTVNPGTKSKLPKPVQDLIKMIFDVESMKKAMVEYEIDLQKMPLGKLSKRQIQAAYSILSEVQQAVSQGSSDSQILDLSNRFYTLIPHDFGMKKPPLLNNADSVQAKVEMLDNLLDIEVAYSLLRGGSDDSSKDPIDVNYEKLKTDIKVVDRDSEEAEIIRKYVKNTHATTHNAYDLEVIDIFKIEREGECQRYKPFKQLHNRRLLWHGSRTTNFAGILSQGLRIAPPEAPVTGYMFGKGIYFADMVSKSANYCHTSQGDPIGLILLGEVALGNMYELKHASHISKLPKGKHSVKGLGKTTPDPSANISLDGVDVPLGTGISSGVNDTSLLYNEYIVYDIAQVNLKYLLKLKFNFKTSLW", "test": "Enzymatic Assay 2: HT Universal Chemiluminescent PARP Assay of cleaved compounds;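 also: PARP reaction with activated DNA run 1 h at room temperature, product detected via streptavidin-HRP and luminescence endpoint reading on a plate reader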", "conditions": "read-out: IC50 Enzymatic Assay 2; Examples cleaved per Example A (crude cleavage solution); R^8H starting materials as such", "units": {"IC50": "nM"}}
{"compound": "CC[C@H](C)[C@H](NC(=O)[C@@H]1CCCN1C(=O)[C@H](CC(N)=O)NC(=O)[C@H](CCC(N)=O)NC(=O)[C@H](CCC(=O)O)NC(=O)[C@H](C)N)C(=O)N[C@@H](Cc1ccc(O)cc1)C(=O)N[C@@H](Cc1c[nH]c2ccccc12)C(=O)N[C@@H](C)C(=O)N[C@@H](CCCNC(=N)N)C(=O)N[C@@H](Cc1ccc(O)cc1)C(=O)N[C@@H](C)C(=O)N[C@@H](CC(=O)O)C(=O)N[C@@H](Cc1c[nH]c2ccccc12)C(=O)N[C@@H](CC(C)C)C(=O)N[C@@H](Cc1ccccc1)C(=O)N[C@H](C(=O)N[C@H](C(=O)N1CCC[C@H]1C(=O)N[C@@H](CC(C)C)C(=O)N[C@@H](CC(C)C)C(=O)N[C@@H](CC(C)C)C(=O)N[C@@H](CC(C)C)C(=O)N[C@@H](CC(=O)O)C(=O)N[C@@H](CC(C)C)C(=O)N[C@@H](C)C(=O)N[C@@H](CC(C)C)C(=O)N[C@@H](CC(C)C)C(=O)N[C@H](C(=O)N[C@@H](CC(=O)O)C(=O)N[C@@H](C)C(=O)N[C@@H](CC(=O)O)C(=O)N[C@@H](CCC(=O)O)C(=O)N[C@@H](CSSc1ccc(COC(=O)N(C)Cc2ccc(-c3[nH]c4cc(F)cc5c4c3CCNC5=O)cc2)cc1)C(=O)NCC(=O)O)C(C)C)[C@@H](C)O)[C@@H](C)O", "note": "[Example 28] (H-AEQNPIYWARYADWLFTTPLLLLDLALLVDADEC(X3)G-OH; N-terminus and C-terminus assumed)", "IC50": 2.4}
{"compound": "CC[C@H](C)[C@H](NC(=O)[C@@H]1CCCN1C(=O)[C@H](CC(N)=O)NC(=O)[C@H](CCC(N)=O)NC(=O)[C@H](CCC(=O)O)NC(=O)[C@H](C)N)C(=O)N[C@@H](Cc1ccc(O)cc1)C(=O)N[C@@H](Cc1c[nH]c2ccccc12)C(=O)N[C@@H](C)C(=O)N[C@@H](CCCNC(=N)N)C(=O)N[C@@H](Cc1ccc(O)cc1)C(=O)N[C@@H](C)C(=O)N[C@@H](CC(=O)O)C(=O)N[C@@H](Cc1c[nH]c2ccccc12)C(=O)N[C@@H](CC(C)C)C(=O)N[C@@H](Cc1ccccc1)C(=O)N[C@H](C(=O)N[C@H](C(=O)N1CCC[C@H]1C(=O)N[C@@H](CC(C)C)C(=O)N[C@@H](CC(C)C)C(=O)N[C@@H](CC(C)C)C(=O)N[C@@H](CC(C)C)C(=O)N[C@@H](CC(=O)O)C(=O)N[C@@H](CC(C)C)C(=O)N[C@@H](C)C(=O)N[C@@H](CC(C)C)C(=O)N[C@@H](CC(C)C)C(=O)N[C@H](C(=O)N[C@@H](CC(=O)O)C(=O)N[C@@H](C)C(=O)N[C@@H](CC(=O)O)C(=O)N[C@@H](CCC(=O)O)C(=O)N[C@@H](CSSc1ccc(COC(=O)N(C)Cc2ccc(-c3[nH]c4cc(F)cc5c4c3CCNC5=O)cc2)cc1C)C(=O)NCC(=O)O)C(C)C)[C@@H](C)O)[C@@H](C)O", "note": "[Example 29] (H-AEQNPIYWARYADWLFTTPLLLLDLALLVDADEC(X10)G-OH; N-terminus and C-terminus assumed)", "IC50": 6.4}
{"compound": "CC[C@H](C)[C@H](NC(=O)[C@@H]1CCCN1C(=O)[C@H](CC(N)=O)NC(=O)[C@H](CCC(N)=O)NC(=O)[C@H](CCC(=O)O)NC(=O)[C@H](C)N)C(=O)N[C@@H](Cc1ccc(O)cc1)C(=O)N[C@@H](Cc1c[nH]c2ccccc12)C(=O)N[C@@H](C)C(=O)N[C@@H](CCCNC(=N)N)C(=O)N[C@@H](Cc1ccc(O)cc1)C(=O)N[C@@H](C)C(=O)N[C@@H](CC(=O)O)C(=O)N[C@@H](Cc1c[nH]c2ccccc12)C(=O)N[C@@H](CC(C)C)C(=O)N[C@@H](Cc1ccccc1)C(=O)N[C@H](C(=O)N[C@H](C(=O)N1CCC[C@H]1C(=O)N[C@@H](CC(C)C)C(=O)N[C@@H](CC(C)C)C(=O)N[C@@H](CC(C)C)C(=O)N[C@@H](CC(C)C)C(=O)N[C@@H](CC(=O)O)C(=O)N[C@@H](CC(C)C)C(=O)N[C@@H](C)C(=O)N[C@@H](CC(C)C)C(=O)N[C@@H](CC(C)C)C(=O)N[C@H](C(=O)N[C@@H](CC(=O)O)C(=O)N[C@@H](C)C(=O)N[C@@H](CC(=O)O)C(=O)N[C@@H](CCC(=O)O)C(=O)N[C@@H](CSSc1ccc(COC(=O)N(C)Cc2ccc(-c3[nH]c4cc(F)cc5c4c3CCNC5=O)cc2)c(C)c1)C(=O)NCC(=O)O)C(C)C)[C@@H](C)O)[C@@H](C)O", "note": "[Example 30] (H-AEQNPIYWARYADWLFTTPLLLLDLALLVDADEC(X15)G-OH; N-terminus and C-terminus assumed)", "IC50": 2.9}
{"compound": "CC[C@H](C)[C@H](NC(=O)[C@@H]1CCCN1C(=O)[C@H](CC(N)=O)NC(=O)[C@H](CCC(N)=O)NC(=O)[C@H](CCC(=O)O)NC(=O)[C@H](C)N)C(=O)N[C@@H](Cc1ccc(O)cc1)C(=O)N[C@@H](Cc1c[nH]c2ccccc12)C(=O)N[C@@H](C)C(=O)N[C@@H](CCCNC(=N)N)C(=O)N[C@@H](Cc1ccc(O)cc1)C(=O)N[C@@H](C)C(=O)N[C@@H](CC(=O)O)C(=O)N[C@@H](Cc1c[nH]c2ccccc12)C(=O)N[C@@H](CC(C)C)C(=O)N[C@@H](Cc1ccccc1)C(=O)N[C@H](C(=O)N[C@H](C(=O)N1CCC[C@H]1C(=O)N[C@@H](CC(C)C)C(=O)N[C@@H](CC(C)C)C(=O)N[C@@H](CC(C)C)C(=O)N[C@@H](CC(C)C)C(=O)N[C@@H](CC(=O)O)C(=O)N[C@@H](CC(C)C)C(=O)N[C@@H](C)C(=O)N[C@@H](CC(C)C)C(=O)N[C@@H](CC(C)C)C(=O)N[C@H](C(=O)N[C@@H](CC(=O)O)C(=O)N[C@@H](C)C(=O)N[C@@H](CC(=O)O)C(=O)N[C@@H](CCC(=O)O)C(=O)N[C@@H](CSSc1c(C)cc(COC(=O)N(C)Cc2ccc(-c3[nH]c4cc(F)cc5c4c3CCNC5=O)cc2)cc1C)C(=O)NCC(=O)O)C(C)C)[C@@H](C)O)[C@@H](C)O", "note": "[Example 31] (H-AEQNPIYWARYADWLFTTPLLLLDLALLVDADEC(X13)G-OH; N-terminus and C-terminus assumed)", "IC50": 3.3}
{"compound": "CC[C@H](C)[C@H](NC(=O)[C@@H]1CCCN1C(=O)[C@H](CC(N)=O)NC(=O)[C@H](CCC(N)=O)NC(=O)[C@H](CCC(=O)O)NC(=O)[C@H](C)N)C(=O)N[C@@H](Cc1ccc(O)cc1)C(=O)N[C@@H](Cc1c[nH]c2ccccc12)C(=O)N[C@@H](C)C(=O)N[C@@H](CCCNC(=N)N)C(=O)N[C@@H](Cc1ccc(O)cc1)C(=O)N[C@@H](C)C(=O)N[C@@H](CC(=O)O)C(=O)N[C@@H](Cc1c[nH]c2ccccc12)C(=O)N[C@@H](CC(C)C)C(=O)N[C@@H](Cc1ccccc1)C(=O)N[C@H](C(=O)N[C@H](C(=O)N1CCC[C@H]1C(=O)N[C@@H](CC(C)C)C(=O)N[C@@H](CC(C)C)C(=O)N[C@@H](CC(C)C)C(=O)N[C@@H](CC(C)C)C(=O)N[C@@H](CC(=O)O)C(=O)N[C@@H](CC(C)C)C(=O)N[C@@H](C)C(=O)N[C@@H](CC(C)C)C(=O)N[C@@H](CC(C)C)C(=O)N[C@H](C(=O)N[C@@H](CC(=O)O)C(=O)N[C@@H](C)C(=O)N[C@@H](CC(=O)O)C(=O)N[C@@H](CCC(=O)O)C(=O)N[C@@H](CSSCCOC(=O)Nc1ccc(COC(=O)N(C)Cc2ccc(-c3[nH]c4cc(F)cc5c4c3CCNC5=O)cc2)cc1)C(=O)NCC(=O)O)C(C)C)[C@@H](C)O)[C@@H](C)O", "note": "[Example 32] (H-AEQNPIYWARYADWLFTTPLLLLDLALLVDADEC(X11)G-OH; N-terminus and C-terminus assumed)", "IC50": 43.9}
{"compound": "CC[C@H](C)[C@H](NC(=O)[C@@H]1CCCN1C(=O)[C@H](CC(N)=O)NC(=O)[C@H](CCC(N)=O)NC(=O)[C@H](CCC(=O)O)NC(=O)[C@H](C)N)C(=O)N[C@@H](Cc1ccc(O)cc1)C(=O)N[C@@H](Cc1c[nH]c2ccccc12)C(=O)N[C@@H](C)C(=O)N[C@@H](CCCNC(=N)N)C(=O)N[C@@H](Cc1ccc(O)cc1)C(=O)N[C@@H](C)C(=O)N[C@@H](CC(=O)O)C(=O)N[C@@H](Cc1c[nH]c2ccccc12)C(=O)N[C@@H](CC(C)C)C(=O)N[C@@H](Cc1ccccc1)C(=O)N[C@H](C(=O)N[C@H](C(=O)N1CCC[C@H]1C(=O)N[C@@H](CC(C)C)C(=O)N[C@@H](CC(C)C)C(=O)N[C@@H](CC(C)C)C(=O)N[C@@H](CC(C)C)C(=O)N[C@@H](CC(=O)O)C(=O)N[C@@H](CC(C)C)C(=O)N[C@@H](C)C(=O)N[C@@H](CC(C)C)C(=O)N[C@@H](CC(C)C)C(=O)N[C@H](C(=O)N[C@@H](CC(=O)O)C(=O)N[C@@H](C)C(=O)N[C@@H](CC(=O)O)C(=O)N[C@@H](CCC(=O)O)C(=O)N[C@@H](CSSCCOC(=O)NCn1c(-c2ccc(CNC)cc2)c2c3c(cc(F)cc31)C(=O)NCC2)C(=O)NCC(=O)O)C(C)C)[C@@H](C)O)[C@@H](C)O", "note": "[Example 33] (H-AEQNPIYWARYADWLFTTPLLLLDLALLVDADEC(X18)G-OH; N-terminus and C-terminus assumed)", "IC50": 2.3}
{"compound": "CC[C@H](C)[C@H](NC(=O)[C@@H]1CCCN1C(=O)[C@H](CC(N)=O)NC(=O)[C@H](CCC(N)=O)NC(=O)[C@H](CCC(=O)O)NC(=O)[C@H](C)N)C(=O)N[C@@H](Cc1ccc(O)cc1)C(=O)N[C@@H](Cc1c[nH]c2ccccc12)C(=O)N[C@@H](C)C(=O)N[C@@H](CCCNC(=N)N)C(=O)N[C@@H](Cc1ccc(O)cc1)C(=O)N[C@@H](C)C(=O)N[C@@H](CC(=O)O)C(=O)N[C@@H](Cc1c[nH]c2ccccc12)C(=O)N[C@@H](CC(C)C)C(=O)N[C@@H](Cc1ccccc1)C(=O)N[C@H](C(=O)N[C@H](C(=O)N1CCC[C@H]1C(=O)N[C@@H](CC(C)C)C(=O)N[C@@H](CC(C)C)C(=O)N[C@@H](CC(C)C)C(=O)N[C@@H](CC(C)C)C(=O)N[C@@H](CC(=O)O)C(=O)N[C@@H](CC(C)C)C(=O)N[C@@H](C)C(=O)N[C@@H](CC(C)C)C(=O)N[C@@H](CC(C)C)C(=O)N[C@H](C(=O)N[C@@H](CC(=O)O)C(=O)N[C@@H](C)C(=O)N[C@@H](CC(=O)O)C(=O)N[C@@H](CCC(=O)O)C(=O)N[C@@H](CSSCCOC(=O)N[C@@H](CC(C)C)n1c(-c2ccc(CNC)cc2)c2c3c(cc(F)cc31)C(=O)NCC2)C(=O)NCC(=O)O)C(C)C)[C@@H](C)O)[C@@H](C)O", "note": "[Example 34] (H-AEQNPIYWARYADWLFTTPLLLLDLALLVDADEC(X5)G-OH; N-terminus and C-terminus assumed)", "IC50": 2.5}
